From patent publication US11311531B2, “Method for producing benzazoloquinolium (BQs) salts and using the biological activity of the composition” (Sistema Universitario Ana G. Mendez, Inc., priority 2014, dated 2022) come the findings set out here.

For data set [1], the system named is human colorectal adenocarcinoma COLO-205. Put plainly: Apoptosis analysis by Annexin V expression. The format is cell-based. Particulars: 24 hours. On the procedure:
Cell culture conditions: The cell cultures utilized in this study were human colorectal adenocarcinoma COLO-205 (ATCC CCL-222). Cultures were maintained in RPMI 1640 media (ATCC, Manassas Va.) supplemented with 10% fetal bovine serum (ATCC) maintained at 37° C. with 95% air and 5% CO2. Apoptosis analysis by Annexin V expression: The annexin V assay allows detection of the migration phosphatidylserine (PS) to the exterior surface of cells, a characteristic event in apoptotic cells. Approximately 2.5×10^6 cells were treated for 24 hours with 10 μM and 20 μM doses of the BQ test compounds. Controls used in all assays were camptothecin 10 and vehicle (DMSO). After a 24-hour exposure, cells were stained with the annexin V conjugate, and propidium iodide (Biotium, Hayward, Calif.). Samples were analyzed by using the Nucleo Counter NC3000 system annexin V assay (Chemometec, Allerød, Denmark). This system allows for measurement and quantification of stained cells. A one-way ANOVA with post hoc Tukey test was also performed for all assays using GraphPad Prism version 6. DNA Fragmentation: DNA Fragmentation can be used as a marker for detection of cells undergoing apoptosis. This enzyme mediated event can be quantified by measuring DNA fragments. The Nucleo Counter NC3000 assay is based on removal of small DNA fragments and retention of 4′,6-diamidino-2-phenylindole (DAPI) stained higher weight fragments. After treatment with BQ's at the test doses, cells were fixed with 70% ethanol for at least 24 hours, stained with 1 μg/ml DAPI, and analyzed using the NC3000 instrument measuring DAPI intensity. Mitochondrial Membrane Permeability: Mitochondria permeability is central in the cell death process. The Nucleocounter NC3000 preset mitochondrial potential assay was used. Approximately 1×10^6 cells were stained with 5,5′,6,6′-Tetrachloro-1,1′,3,3′-tetraethyl-imidacarbocyanine iodide (JC-1) and 1 μg/ml DAPI and analyzed in the NC3000. depolarized cells will fluoresce green while cells with stable mitochondrial membrane potential will fluoresce orange. The change in ratio of green to orange fluorescence will determine the permeability state of the samples.

For data set [2] the test system is unchanged. Put plainly: Mitochondrial membrane permeability, JC-1 NC3000. The format is cell-based. The conditions noted are these: colo 205, versus negative control and camptothecin. On the procedure: (§1) Cell culture conditions: The cell cultures utilized in this study were human colorectal adenocarcinoma COLO-205 (ATCC CCL-222). Cultures were maintained in RPMI 1640 media (ATCC, Manassas Va.) supplemented with 10% fetal bovine serum (ATCC) maintained at 37° C. with 95% air and 5% CO2. Apoptosis analysis by Annexin V expression: The annexin V assay allows detection of the migration phosphatidylserine (PS) to the exterior surface of cells, a characteristic event in apoptotic cells. Approximately 2.5×10^6 cells were treated for 24 hours with 10 μM and 20 μM doses of the BQ test compounds. Controls used in all assays were camptothecin 10 and vehicle (DMSO). […] Samples were analyzed by using the Nucleo Counter NC3000 system annexin V assay (Chemometec, Allerød, Denmark). This system allows for measurement and quantification of stained cells. […] This enzyme mediated event can be quantified by measuring DNA fragments. […] After treatment with BQ's at the test doses, cells were fixed with 70% ethanol for at least 24 hours, stained with 1 μg/ml DAPI, and analyzed using the NC3000 instrument measuring DAPI intensity. […] Approximately 1×10^6 cells were stained with 5,5′,6,6′-Tetrachloro-1,1′,3,3′-tetraethyl-imidacarbocyanine iodide (JC-1) and 1 μg/ml DAPI and analyzed in the NC3000. depolarized cells will fluoresce green while cells with stable mitochondrial membrane potential will fluoresce orange. […]

For data set [3] the test system is unchanged. Put plainly: DNA fragmentation, NC3000 DAPI. The class given is cell-based. The conditions noted are these: colo 205, versus negative control and camptothecin. On the procedure: as §1
For a further data set, the system named is TK-6 cells. Put plainly: DNA fragmentation, NC3000 DAPI assay. Particulars: TK6, 48 hours. The format is cell-based, human. On the procedure:
(§2) Methods—Cultures were exposed for 48 hours to ABQ 48 at doses from 10 μM to 180 μM. Cells were harvested counted and assessed for cell viability implementing the Trypan Blue exclusion method using the Countess™ automated cell counter (Invitrogen Corp. Carlsbad, Calif.). The percentage of viable cells was calculated and graphed using Excel (Microsoft Corp. Redmond, Wash.). The mitochondrial membrane permeability assays was determined applying the Nucleocounter 3000, JC-1 assay. DNA fragmentation and cell cycle alterations were analyzed also through the Nucleocounter 3000 instrument.
(§3) Bioactivity 3. DNA fragmentation—Fragmentation of DNA as a marker for apoptosis is a commonly used assay. Analysis was performed applying the Nucleo counter NC3000 DNA fragmentation assay. Determination of the degree of DNA fragmentation is based on the retention of DAPI, a nucleic acid staining reagent. As described previously TK-6, and Toledo cells were kept in culture at the specified conditions. Cells where then treated with the tested compounds as previously described for 48 hours, after which nutritional media removed, cells harvested, fixed with 70% ethanol, incubated and stained with 1 μg/ml DAPI according to manufacturer's specifications for image analysis measuring DAPI intensity.
(§4) DNA fragmentation—Analysis was performed applying the Nucleo counter NC3000 DNA fragmentation assay. Determination of the degree of DNA fragmentation is based on the retention of DAPI, a nucleic acid staining reagent. Prior to treatment with the tested compounds A431 and TK-6 cells were kept in culture at the specified conditions. Cells where then treated with the tested compounds at the respective IC50 concentrations ([…] DNA fragmentation protocol was as recommended by Nucleo counter NC3000 manufacturer.

In data set [4] the test system is Toledo cells. Put plainly: DNA fragmentation, NC3000 DAPI assay. Particulars: 48 hours. The class given is cell-based, human. As for the experimental part:
as §2, §3

Data set [5] deals with NCI 60 human tumor cell line panel. Put plainly: NCI 60 human tumor cell line screen, one dose, whole panel. The format is cell-based. The conditions noted are these: for activity in the NCI 60 screen (growth inhibition, in words): one dose; for growth inhibition: 10 μM. As for the experimental part: (§5) The National Cancer Institute (NCI) 60 human tumor cell line screen uses genetically characterized cells to determine biological activity against various cell lines. The panel is comprised of various cell types representing some of the most important cancer types. Two of the benzazolo[3,2-a]quinolinium salts i.e. NBQ 48 (NSC: D-763303) and ABQ 48 (NSC: D-763307) were tested at a dose of 10 μM on the entire cell line panel. The complete details of the NCI-60 cell line screening are describe in document Feasibility of drug screening with panels of human tumor cell lines using a microculture tetrazolium assay. Cancer research, 1988, 48(3), 589-601 (here included by reference).
(§6) Briefly, the cancer cells are grown in RPM1 1640 medium for 24 hours. Experimental compounds dissolved in DMSO are incubated with cells at 10 μM. After incubation the cells are stained with sulforhodamine B and the absorbance is read on a plate reader. The data reported as a mean graph are shown in the drawings FIG. 21 through FIGS. 24A-24I. For five dose study the test compound is incubated with cells at five different concentrations with 10-fold dilutions, from 10^−4 M, 10^−5, 10^−6, 10^−7, and 10^−8 M. Rest of the procedure is similar to the one dose experiment. After measurement, the (GI50) is calculated from time zero, control growth, and the five concentration absorbance. Inhibitory concentrations (LC50) represent the average of two experiments.
(§7) All the one-dose data of these compounds is reported as a mean of the growth percent of BQ exposed cells. One dose assay results are relative to control and number of cells at time 0. Growth inhibition values are placed from 0 to 100 whereas lethality is reflected in values less than 0. A sample obtained value of 100 means that no growth was inhibited. If the value is for example 30 then growth inhibition is 70%. If a sample has a value of −30 then this means 30% lethality, conversely if the value would be −100 the all cells in the sample are dead.

A further data set concerns Toledo. Put plainly: Mitochondrial membrane permeability, JC-1 assay. The format is cell-based, human. On the procedure:
as §2

For data set [6], the system named is TK6. Put plainly: Mitochondrial membrane permeability, JC-1 assay. The format is cell-based, human. As for the experimental part:
as §2

The subject of data set [7] is A431. Put plainly: Mitochondrial membrane permeability, JC-1 assay. The class given is cell-based, human. As for the experimental part:
as §2

The subject of a further data set is KM12. Put plainly: NCI 60 human tumor cell line screen, one dose. The class given is cell-based. Particulars: 10 μM. As for the experimental part:
as §5, §6, §7

A further data set deals with U251. Put plainly: NCI 60 human tumor cell line screen, one dose. The class given is cell-based. The conditions noted are these: 10 μM. On the procedure: as §5, §6, §7
In a further data set the test system is SK-MEL-5. Put plainly: NCI 60 human tumor cell line screen, one dose. The format is cell-based. The conditions noted are these: 10 μM. On the procedure:
as §5, §6, §7

The subject of data set [8] is TK6. Briefly: Cell cycle disruption, DAPI image analysis. Particulars: Tk6, ABQ 48 exposure. The class given is cell-based, human. On the procedure: as §2
(§8) Cell Cycle disruption—Cell cycle effects are of great importance to the characterization of any novel therapeutic agent. After treatment with the tested BQS 95 and BQS 38 at previously described conditions, cells were harvested, and stained with 10 μg/ml DAPI (a DNA marker) according to manufacturer's specifications and analyzed with the instrument using image analysis to measure the DAPI intensity as an indicator of the DNA density.

The subject of data set [9] is A431. Briefly: Cell cycle disruption, DAPI image analysis. Particulars: A431, ABQ 48 exposure. The class given is cell-based, human. As for the experimental part:
as §2, §8

A further data set has as its system Toledo lymphoma cells. Put plainly: Cell viability, Trypan Blue exclusion. The format is cell-based, human. As for the experimental part:
(§9) Cell cultures—The three cell lines A431 epitheloid carcinoma cells (ATCC CRL-1555), the human TK-6 lymphoblasts cells (ATCC CRL-8015) and Toledo lymphoma (CRL-2631 respectively) were obtained from American Type Culture Collection (ATCC, Manassas, Va.) and cultured on RPMI 1640 (ATCC) cell culture media with 10% fetal bovine serum (ATCC). Cell cultures were maintained in a cell culture incubator at 37° C. and 5% CO2.
as §2

A further data set relates to TK-6 lymphoblasts cells. Put plainly: Cell viability, Trypan Blue exclusion. The format is cell-based, human. On the procedure: as §9, §2
Data set [10] has as its system A431 epitheloid carcinoma cells. Briefly: Cell viability, Trypan Blue exclusion. The class given is cell-based, human. On the procedure:
as §9, §2

In another data set the test system is A431 cells. Put plainly: DNA fragmentation, NC3000 DAPI assay. The conditions noted are these: A431, ABQ 48 exposure. The class given is cell-based, human. As for the experimental part: as §2, §4
The subject of data set [11] is Toledo cells. Briefly: Cell cycle disruption, DAPI image analysis. The format is cell-based, human. The conditions noted are these: 48 hours. On the procedure: as §2
Bioactivity 4. Cell Cycle disruption—Cell cycle effects are of great importance to the characterization of any novel therapeutic agent. This most fundamental cellular process is integral in determining the effects of any drug upon the target cells. After treatment with the tested BQs at previously described conditions, cells were harvested, and stained with 10 μg/ml DAPI (a DNA marker) according to manufacturer's specifications and analyzed with the instrument using image analysis to measure the DAPI intensity as an indicator of the DNA density.

A short description of data set [12]: Cytotoxicity activity of CBQs. The class given is cell-based. The conditions noted are these: human, A-431 cells; A-431 cell line.

A value given as a limit tells only on which side of the number the result lay.

On to “7-(2,3,4-Trimethoxybenzyl)-3-aminostyrylbenzimidazo[3,2-a]quinolinium chloride [ABQ 234 TOM]”, for which the apoptotic cells in [1] (10 μM) and in [1] (20 μM) was 91% throughout. Also, the mitochondrial membrane permeabilization result in [2] was “higher mitochondrial permeabilization in comparison with the negative control (water as vehicle) and similar to the positive control camptothecin”. Further, the DNA fragmentation induction result in [3] is on record as “did not present evidence of DNA fragmentation”.

On to “7-(2,3,4-trimethoxybenzyl)-3-nitrobenzimidazo[3,2-a]quinolinium chloride [NBQ 234 TOM]”, for which the apoptotic cells was determined as 83.7% in data set [1] (10 μM) and 87.5% in [1] (20 μM). The mitochondrial membrane permeabilization entry in [2] was “higher mitochondrial permeabilization in comparison with the negative control (water as vehicle) but lower than cells treated with the positive control camptothecin”. Moreover, in [3], the DNA fragmentation induction result was “higher DNA fragmentation in comparison with the negative control (water as vehicle) and higher than the positive control camptothecin”.

For the molecule “7-benzyl-3-nitrobenzimidazolo[3,2-a]quinolinium chloride [NBQ-48]”, the DNA fragmentation entry with TK-6 cells and in the data set on Toledo cells [4] was “higher than the negative control” in each case. In [5], the “activity in the NCI 60 screen (growth inhibition, in words)” value is “less effective”.

What is called IC90 is the concentration at which the effect reaches the 90% level. The low end stands for greater potency, the high end for weaker potency. One may read the IC50 as the concentration at which inhibition is half-maximal. Lower therefore signals higher potency. Take `Nc1ccc2c(ccc3n2c2ccccc2[n+]3Cc2ccccc2)c1.[Cl-]` [ABQ-48, 7-Benzyl-3-aminobenzimidazo[3,2-a]quinolinium chloride]: the mitochondrial membrane permeability result with Toledo, with TK6 [6] and with A431 [7] was “observed” each time. Further, the growth inhibition is greater than 90% in the data set with KM12; greater than 90% with U251; greater than 90% with SK-MEL-5; “greater than 60%” in data set [5] (in no less than 8 cell lines); greater than 70% in data set [5] (in several cell lines). The DNA fragmentation entry with TK-6 cells (listed as ABQ 48) is “observed”; in the data set with TK-6 cells (listed as ABQ48) it was “higher than the negative control”; in the data set on A431 cells it was “observed”; in the data set with Toledo cells [4] (listed as ABQ 48) it was “observed”; with Toledo cells [4] (listed as ABQ48), “higher than the negative control”. Besides, the cell cycle alteration result in the data set with TK6 [8] is “observed”; in the data set on A431 [9], “observed”; with Toledo cells [11] (listed as ABQ 48), “observed”; in the data set on Toledo cells [11] (listed as ABQ48), “arrested at the S/G2 stage”. In addition, the IC90 came to 100 µM in the data set on Toledo lymphoma cells, 135 µM in the data set on TK-6 lymphoblasts cells (Tk6) and 90 µM in [10] (A431). Further, the IC50 with Toledo lymphoma cells (48 hours exposure) was determined as 50 µM; with TK-6 lymphoblasts cells (Tk6, 48 hours exposure), 8.6 µM; in [10] (A431, 48 hours exposure), 23 µM. In addition, the “activity in the NCI 60 screen (growth inhibition, in words)” value in data set [5] is reported as “highly effective”.

Regarding `Cc1ccc2sc3ccc4c(Cl)cccc4[n+]3c2c1` [CBQ-108, 4-Chloro-10-methylbenzothiazolo[3,2-a]quinolinium chloride], inhibition in data set [12] was half-maximal at 3.7 µM (IC50).
